In test [1] the target is T1, Bovine liver catalase (Bos taurus, UniProt P00432).
T1 construct: Bovine liver catalase was also purchased from Sigma-Aldrich; purchased Sigma-Aldrich; host or cells: bovine liver
T1 sequence (P00432 2-527 limits assumed): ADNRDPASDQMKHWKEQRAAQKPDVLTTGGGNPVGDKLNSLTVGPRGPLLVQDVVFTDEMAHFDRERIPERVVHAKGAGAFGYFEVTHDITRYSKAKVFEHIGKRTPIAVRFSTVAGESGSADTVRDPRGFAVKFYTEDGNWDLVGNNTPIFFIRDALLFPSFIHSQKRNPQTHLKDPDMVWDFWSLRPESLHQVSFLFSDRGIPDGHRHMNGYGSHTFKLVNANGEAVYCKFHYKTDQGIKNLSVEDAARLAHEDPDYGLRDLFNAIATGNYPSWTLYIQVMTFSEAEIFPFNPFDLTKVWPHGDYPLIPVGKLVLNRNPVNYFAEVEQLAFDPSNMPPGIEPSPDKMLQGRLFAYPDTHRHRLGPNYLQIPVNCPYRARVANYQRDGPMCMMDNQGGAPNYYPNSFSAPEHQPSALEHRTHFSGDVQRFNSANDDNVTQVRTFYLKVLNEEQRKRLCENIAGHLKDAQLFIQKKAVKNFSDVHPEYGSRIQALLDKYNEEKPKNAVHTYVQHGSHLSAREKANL
In words: Catalase activity (H2O2 disappearance at 240 nm) as a function of thiol concentration. It counts as biochemical. The following applies: read-out: relative IC50 (CAT activity). As to the method:
CAT activity was measured on an Uvikon 941 spectrophotometer equipped with a temperature controlled water bath (±1 °C) by following the disappearance of H2O2 at 240 nm over 30–120 s at 25 °C. Catalase activity was calculated based on the rate of decomposition of hydrogen peroxide, which is proportional to the reduction of the absorbance at 240 nm. Experiments were carried out in a 3 ml quartz cuvette containing 11.7 mM H2O2 in 50 mM KPi, pH 7.4±1 mM DTPA and the reaction was initiated by adding 0.3–0.6 pmoles of CAT. The effect of biological thiols on the activity of CAT under physiological conditions was determined from a solution of CAT (30–60 nM) preincubated at 25 °C for at least 120 min as a function thiol concentration (0–40 mM for HCys and Cys, 0–100 mM for GSH) in 50 mM KPi, pH 7.4, 1 mM DTPA. Control experiments (biological thiols alone) were also performed in parallel. In each case, 10 μl of the reaction mixture (biological thiols±CAT) was added to the cuvette containing the H2O2 solution to initiate the reaction. Similarly, the effect of biological thiols on the activity of CAT under pathological conditions was determined from a solution of CAT (30–60 nM) containing a 2.124±0.386 molar excess of iron that was preincubated with various concentrations of thiols (0–1 mM) for at least 120 min at 25 °C in 50 mM KP at pH 7.4. The relative half inhibitory concentration (IC50) values were obtained by plotting the relative activity of CAT (A, in per cent) as a function of the concentration of thiol-compounds (RSH) and by fitting the data with the following four parameter logistic equation: A=Amin+(Amax−Amin)/(1+([RSH]/IC50)^n), where Amax is the maximal activity of CAT (constrained at 100%), Amin is the minimum activity achieved at saturating concentration of RSH and n is the Hillslope that characterizes the slope of the curve at its midpoint. The inactivation rate (kinact, min^−1) was extracted from the time course of the inactivation of CAT bioactivity using a fixed concentration of HCys. Accordingly, a solution of CAT (3.5–5 μM) was incubated with 2 mM L-HCys in 50 mM KPi, pH 7.4, 1 mM DTPA. Aliquots (10 μl) were taken at intervals (0–480 min), diluted 1:50 in 50 mM KPi, pH 7.4, 1 mM DTPA and assayed for CAT activity as described above. Similar experiments were performed in the presence of DMPO, 5,5-dimethyl-1,3-cyclohexanedione (dimedone) or SOD at a final concentration of 100 mM, 4 mM or 40 U, respectively. kinact values were obtained by plotting the relative activity of CAT (A, in per cent) as a function of the incubation time and the data were fitted with an exponential decay function: A=A0+ΔA × e^−kinact × t, with A0 and ΔA (A0+ΔA=100%) the residual activity and the percentage of CAT inhibition when t→∞, respectively. The effect of NaSH on the consumption of H2O2 in cell lysates was determined from a solution of cell lysates (0.5–3 mg ml^−1) incubated on ice with various concentrations of NaSH (0–200 μM). The disappearance of H2O2 was then followed at 240 nm for 2–5 min at 25 °C after the addition of 20–25 μl of the reaction mixture in a 3 ml cuvette containing 11.7 mM H2O2 in 50 mM KPi, pH 7.4. The relative half inhibitory concentration (IC50) values for NaSH were obtained by plotting the relative rate of disappearance of H2O2 (ΔA240 nm/min) as a function of the concentration of NaSH and by fitting the data with an hyperbolic decay equation. All the experiments were performed at least in triplicate.

Test [2] has as its target T1, Bovine liver catalase. In words: Comparative kinetic studies by ultraviolet-visible spectroscopy (compound II and Fe(II) sulfonium formation). It counts as biochemical. The following applies: CAT + 2 mM HCys, 1 mM DTPA, pH 7.4, with the additive named (dimedone 4 mM, BCN 0.1 mM, SOD 40 U). As to the method:
Ultraviolet–visible spectra were recorded on a Cary 300 Scan or an Uvikon 941 spectrophotometer equipped with a temperature equilibrating water bath (±1 °C). Spectral changes over time were recorded when CAT was incubated with L-HCys (0.2 or 2 mM), L-Cys (0.2, 2 or 9 mM) or GSH (1 or 30 mM) at 25 °C in a 1 ml quartz cuvette containing a solution of CAT (2.7–5.9 μM) in 50 mM KPi, pH 7.4±1 mM DTPA. Due to half-site reactivity of biological thiols with CAT, the data were recorded versus a blank containing half the concentrations of CAT used in the experiments, that is, a solution of 1.35–2.95 μM CAT in 50 mM KPi at pH 7.4±1 mM DTPA. Reactions were initiated by addition of the thiol-containing compounds. Comparative kinetic studies were performed by incubating CAT ([…] in the experiment, 1.35–1.5 μM in the blank) with 2 mM L-HCys in 50 mM KPi, pH 7.4, 1 mM DTPA with or without […], 5,5-dimethyl-1,3-cyclohexanedione (dimedone, 4 mM), BCN (0.1 mM) or SOD, 40 U). All the experiments were performed at least in duplicate.

[3] abbreviates: +1 mM DTPA (physiological conditions), 50 mM phosphate buffer pH 7.4, 25 °C, n=3±s.d.
The mark [4] stands for this setting: iron 55–145 nM, −DTPA (pathological conditions), 50 mM phosphate buffer pH 7.4, 25 °C, n=3±s.d.

Data on three compounds can be found in PMC5116089, “Sulfheme formation during homocysteine S-oxygenation by catalase in cancers and neurodegenerative diseases” (Nature Communications, 2016).

Where two headings read alike, the source gives them in different places. Where only a bound is given, the exact number is not on record here.

Take `N[C@@H](CS)C(=O)O` [Cys, cysteine]: the IC50 at Bovine liver catalase [1] (setting [3]) was 590 ± 70 µM; at Bovine liver catalase [1] (iron 55–145 nM, + 0.2 mM DTPA), 69 ± 27 µM; at Bovine liver catalase [1] (iron 55–145 nM, + 1 mM DTPA), 594 ± 67 µM; on Bovine liver catalase [1] (iron 55–145 nM, + DMPO) it was over 700 µM; at Bovine liver catalase [1] (iron 55–145 nM, + SOD) it was 66 ± 16 µM; on Bovine liver catalase [1] (setting [4]) it was 3.5 ± 0.3 µM.

On to `N[C@@H](CCC(=O)N[C@@H](CS)C(=O)NCC(=O)O)C(=O)O` [GSH, glutathione], for which the half-inhibitory concentration (IC50) worked out at 21200 ± 8500 µM at Bovine liver catalase [1] (setting [3]) and 55 ± 14 µM at Bovine liver catalase [1] (setting [4]).

Turning to `NC(CCS)C(=O)O` (centres unmarked) [HCys, homocysteine], the values for the concentration for half-maximal inhibition (IC50) on Bovine liver catalase [1] (setting [3]) and at Bovine liver catalase [1] (setting [4]) were 1440 ± 370 µM and 37 ± 3 µM, respectively. For the same compound, the “Ultraviolet–visible spectroscopy kobs(6) (CAT–Fe(IV)=O formation)” value on Bovine liver catalase [2] is 0.026 ± 0.003 min⁻¹.

Broadly, the IC50 is the concentration that gives 50% inhibition.
